# Experimental data from PubChem BioAssay AID328 (DTP/NCI, 2004).
# Values joined by “and” are separate entries in the source; they are usually repeats but may differ in a detail not shown here. Identical values can stand only once. Toxic doses and inconclusive results are not listed.
# Tested on: BDF1 mice, P388 leukemia ip, median survival T/C
# Test: NCI In Vivo Anticancer Drug Screen. Data for tumor model P388 Leukemia (intraperitoneal) in B6D2F1 (BDF1) mice
# Details: endpoint: median survival time, higher = longer survival
# In short: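 Read-out is survival of treated animals expressed relative to the vehicle group, as a T/C ratio.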
# [1] = dose: 100.0 mg/kg/injection, schedule: Q01DX009 (ip), vehicle: Klucel (hydroxypropylcellulose) (HPC)
# [2] = dose: 200.0 mg/kg/injection, schedule: Q01DX009 (ip), vehicle: Klucel (hydroxypropylcellulose) (HPC)
# [3] = dose: 3.13 mg/kg/injection, schedule: Q01DX009 (ip), vehicle: saline with Tween-80
# [4] = dose: 6.25 mg/kg/injection, schedule: Q01DX009 (ip), vehicle: saline with Tween-80
# [5] = dose: 50.0 mg/kg/injection, schedule: Q01DX009 (ip), vehicle: saline with Tween-80
# [6] = dose: 100.0 mg/kg/injection, schedule: Q01DX009 (ip), vehicle: saline with Tween-80
# [7] = dose: 200.0 mg/kg/injection, schedule: Q01DX009 (ip), vehicle: saline with Tween-80
# [8] = dose: 100.0 mg/kg/injection, schedule: Q04DX003 (ip), vehicle: saline with Tween-80
# [9] = dose: 200.0 mg/kg/injection, schedule: Q04DX003 (ip), vehicle: saline with Tween-80
# [10] = dose: 400.0 mg/kg/injection, schedule: Q04DX003 (ip), vehicle: saline with Tween-80
# [11] = dose: 100.0 mg/kg/injection, schedule: Q01DX001 (ip), vehicle: saline with Tween-80
# [12] = dose: 200.0 mg/kg/injection, schedule: Q01DX001 (ip), vehicle: saline with Tween-80
# [13] = dose: 50.0 mg/kg/injection, schedule: Q01DX001 (ip), vehicle: saline
# [14] = dose: 100.0 mg/kg/injection, schedule: Q01DX001 (ip), vehicle: saline
# [15] = dose: 200.0 mg/kg/injection, schedule: Q01DX001 (ip), vehicle: saline
compound,measurement,setting,value
Cc1ccc(S(=O)(=O)OCC2C3C=CC(C3)C2COS(=O)(=O)c2ccc(C)cc2)cc1 (stereo not given),T/C,[1],86 % of control
same,T/C,"dose: 100.0 mg/kg/injection, schedule: Q04DX003 (ip), vehicle: Klucel (hydroxypropylcellulose) (HPC)",86 % of control
same,T/C,[2],104 % of control
same,T/C,"dose: 200.0 mg/kg/injection, schedule: Q04DX003 (ip), vehicle: Klucel (hydroxypropylcellulose) (HPC)",90 % of control
same,T/C,"dose: 400.0 mg/kg/injection, schedule: Q01DX009 (ip), vehicle: Klucel (hydroxypropylcellulose) (HPC)",100 % of control
same,T/C,"dose: 400.0 mg/kg/injection, schedule: Q04DX003 (ip), vehicle: Klucel (hydroxypropylcellulose) (HPC)",90 % of control
CCOC(=O)/C=C(\C)Sc1cc(O)c2ccccc2c1O,T/C,[3],102 % of control
same,T/C,[4],103 % of control
CCCCOC1OCN(c2ccc(OC)cc2)CC1(C)C (stereo not given),T/C,"dose: 50.0 mg/kg/injection, schedule: Q01DX009 (ip), vehicle: saline + alcohol",114 % of control
same,T/C,"dose: 100.0 mg/kg/injection, schedule: Q01DX009 (ip), vehicle: saline + alcohol",107 % of control
same,T/C,"dose: 200.0 mg/kg/injection, schedule: Q01DX009 (ip), vehicle: saline + alcohol",118 % of control
C(=Nc1ccc2c(c1)Cc1ccccc1-2)c1ccc2ccccc2c1,T/C,"dose: 12.5 mg/kg/injection, schedule: Q04DX002 (ip), vehicle: saline with Tween-80",103 % of control
same,T/C,"dose: 25.0 mg/kg/injection, schedule: Q04DX002 (ip), vehicle: saline with Tween-80",94 % of control
same,T/C,"dose: 50.0 mg/kg/injection, schedule: Q04DX002 (ip), vehicle: saline with Tween-80",97 % of control
CC1(C)CC(=O)C2=C(C1)OC1=C(C(=O)CC(C)(C)C1)C2c1cccc([N+](=O)[O-])c1,T/C,[5],104 % of control
same,T/C,[6],123 % of control
same,T/C,[7],106 % of control
O=C(/C=C/c1ccc(Cl)cc1Cl)c1ccc(Cl)cc1,T/C,[6],104 % of control
same,T/C,[7],104 % of control
same,T/C,"dose: 400.0 mg/kg/injection, schedule: Q01DX009 (ip), vehicle: saline with Tween-80",100 % of control
Clc1ccc(-c2cc[s+]s2)cc1,T/C,"dose: 3.12 mg/kg/injection, schedule: Q01DX009 (ip), vehicle: water",94 % of control
same,T/C,"dose: 3.12 mg/kg/injection, schedule: Q04DX003 (ip), vehicle: water",111 % of control
same,T/C,"dose: 6.25 mg/kg/injection, schedule: Q01DX009 (ip), vehicle: water",110 % of control
same,T/C,"dose: 6.25 mg/kg/injection, schedule: Q04DX003 (ip), vehicle: water",100 % of control
same,T/C,"dose: 12.5 mg/kg/injection, schedule: Q01DX009 (ip), vehicle: water",119 % of control
same,T/C,"dose: 12.5 mg/kg/injection, schedule: Q04DX003 (ip), vehicle: water",97 % of control
same,T/C,"dose: 25.0 mg/kg/injection, schedule: Q01DX009 (ip), vehicle: water",119 % of control
same,T/C,"dose: 25.0 mg/kg/injection, schedule: Q04DX003 (ip), vehicle: water",96 % of control and 117 % of control
same,T/C,"dose: 50.0 mg/kg/injection, schedule: Q01DX009 (ip), vehicle: water",108 % of control
same,T/C,"dose: 50.0 mg/kg/injection, schedule: Q04DX003 (ip), vehicle: water",90 % of control and 100 % of control
same,T/C,"dose: 100.0 mg/kg/injection, schedule: Q04DX003 (ip), vehicle: water",98 % of control
COc1cc(/C=C(/C)[N+](=O)[O-])cc(Br)c1OC,T/C,[8],117 % of control
CC1COCC(C)N1 (stereo not given),T/C,"dose: 100.0 mg/kg/injection, schedule: Q04DX003 (ip), vehicle: saline",106 % of control
same,T/C,"dose: 200.0 mg/kg/injection, schedule: Q04DX003 (ip), vehicle: saline",111 % of control
same,T/C,"dose: 400.0 mg/kg/injection, schedule: Q04DX003 (ip), vehicle: saline",106 % of control
ClC12CC3CC(CC(C3)C1)C2,T/C,"dose: 50.0 mg/kg/injection, schedule: Q04DX003 (ip), vehicle: acetone",104 % of control
same,T/C,"dose: 100.0 mg/kg/injection, schedule: Q04DX003 (ip), vehicle: acetone",113 % of control
same,T/C,"dose: 200.0 mg/kg/injection, schedule: Q04DX003 (ip), vehicle: acetone",109 % of control
Cc1c(Cl)cccc1NC(=O)COc1ccc(Cl)cc1Cl,T/C,[8],108 % of control
same,T/C,[9],87 % of control
same,T/C,[10],95 % of control
COc1ccc(C=C2c3ccccc3-c3ccccc32)cc1,T/C,[11],100 % of control
same,T/C,[12],95 % of control
same,T/C,"dose: 400.0 mg/kg/injection, schedule: Q01DX001 (ip), vehicle: saline with Tween-80",100 % of control
COc1cc2c3c(c1O)Oc1ccc(cc1)C[C@@H]1c4c(cc(OC)c(O)c4Oc4ccc(cc4)C[C@H]3N(C)CC2)CCN1C,T/C,"dose: 40.0 mg/kg/injection, schedule: Q01DX010 (ip), vehicle: saline",95 % of control
same,T/C,"dose: 80.0 mg/kg/injection, schedule: Q01DX010 (ip), vehicle: saline",100 % of control
same,T/C,"dose: 160.0 mg/kg/injection, schedule: Q01DX010 (ip), vehicle: saline",105 % of control
same,T/C,"dose: 320.0 mg/kg/injection, schedule: Q01DX010 (ip), vehicle: saline",90 % of control
CC(=O)OC1(C)CC(C)(C)N=[N+]1[O-] (stereo not given),T/C,"dose: 12.5 mg/kg/injection, schedule: Q01DX005 (ip), vehicle: other",103 % of control
same,T/C,"dose: 25.0 mg/kg/injection, schedule: Q01DX005 (ip), vehicle: other",103 % of control
same,T/C,"dose: 50.0 mg/kg/injection, schedule: Q01DX005 (ip), vehicle: other",121 % of control
same,T/C,"dose: 100.0 mg/kg/injection, schedule: Q01DX005 (ip), vehicle: other",103 % of control
same,T/C,"dose: 200.0 mg/kg/injection, schedule: Q01DX005 (ip), vehicle: other",109 % of control
CCOC(OC(C)=O)OC(C)=O,T/C,[13],100 % of control
same,T/C,[14],115 % of control
same,T/C,[15],110 % of control
CC1(NC(=O)N(CCCl)N=O)CCCC1,T/C,[8],272 % of control
same,T/C,[9],90 % of control
CC(=O)OC1CCC2(C)C3CCC4(C)C(=CCC5(C(=O)O)CCC(C)(C)CC45)C3(C)CCC2C1(C)C (stereo not given),T/C,"dose: 0.12 mg/kg/injection, schedule: Q01DX009 (ip), vehicle: alcohol",111 % of control
same,T/C,"dose: 0.25 mg/kg/injection, schedule: Q01DX009 (ip), vehicle: alcohol",106 % of control
same,T/C,"dose: 0.5 mg/kg/injection, schedule: Q01DX009 (ip), vehicle: alcohol",116 % of control
CC(=O)[S][Pb]([c]1ccccc1)([c]1ccccc1)[c]1ccccc1,T/C,"dose: 4.0 mg/kg/injection, schedule: Q01DX009 (ip), vehicle: Klucel (hydroxypropylcellulose) (HPC)",114 % of control
same,T/C,"dose: 5.9 mg/kg/injection, schedule: Q01DX009 (ip), vehicle: Klucel (hydroxypropylcellulose) (HPC)",110 % of control
same,T/C,"dose: 9.0 mg/kg/injection, schedule: Q01DX009 (ip), vehicle: Klucel (hydroxypropylcellulose) (HPC)",106 % of control
CSc1nc(NN(C)C)c2[nH]c(C)nc2n1,T/C,"dose: 0.78 mg/kg/injection, schedule: Q01DX009 (ip), vehicle: saline with Tween-80",97 % of control
same,T/C,"dose: 1.56 mg/kg/injection, schedule: Q01DX009 (ip), vehicle: saline with Tween-80",116 % of control
same,T/C,[3],111 % of control
same,T/C,[4],87 % of control
ClC1=C(Cl)C(Cl)=C(Cl)C1=NN=C1C(Cl)=C(Cl)C(Cl)=C1Cl,T/C,"dose: 50.0 mg/kg/injection, schedule: Q01DX001 (ip), vehicle: saline with Tween-80",100 % of control
same,T/C,[11],95 % of control
same,T/C,[12],90 % of control
COc1cc2cc3c4cc(OC)c(OC)cc4cc[n+]3c(CCC(=O)O)c2cc1OC (tested in a mixture with another compound),T/C,[1],92 % of control
same,T/C,[2],119 % of control
CN(CCCCN(C)CCOS(C)(=O)=O)CCOS(C)(=O)=O,T/C,"dose: 0.8 mg/kg/injection, schedule: Q04DX003 (ip), vehicle: saline",177 % of control
same,T/C,"dose: 1.2 mg/kg/injection, schedule: Q04DX003 (ip), vehicle: saline",172 % of control
same,T/C,"dose: 1.8 mg/kg/injection, schedule: Q04DX003 (ip), vehicle: saline",154 % of control
O=C(Nc1cccc(C(F)(F)F)c1)C12CC3CC(CC(C3)C1)C2,T/C,"dose: 12.5 mg/kg/injection, schedule: Q01DX009 (ip), vehicle: saline with Tween-80",92 % of control
same,T/C,[5],87 % of control
same,T/C,[6],90 % of control
O=c1cc(Cl)c(=O)[nH][nH]1,T/C,[13],101 % of control
same,T/C,[14],118 % of control
same,T/C,[8],100 % of control
same,T/C,[15],98 % of control
same,T/C,[9],91 % of control
same,T/C,[10],91 % of control
